Source: patent publication US20260217701A1, “SELECTIVE BET INHIBITORS AND USES THEREOF” (Tay Therapeutics Limited, priority 2022, published 2026)
Where “and” joins values, the source holds several entries; their conditions need not be identical. Identical values can stand only once. Entries after “also recorded” stand apart in the source; their conditions may differ. Marks after values point to notes of the source that are not given here.

Assays:
EAE study: body weight = format: in vivo, C57BI/6 mice; conditions: for Mean Body Weight Change (% of Day −1): mean end body weight
Procedure: Experimental Method H: EAE in animals treated with a BET inhibitor and vehicle. Animals were assigned to the groups outlined in Table 38.
Compound A may be formulated as illustrated in Experimental Method A (see Table 2E.). A 40 mg/mL stock solution of Compound A in DMSO was prepared and aliquots stored at −20° C. On each day of preparation an e.g., 0.75 mL aliquot of thawed stock was diluted with an equal volume of DMSO. The remaining vehicle components were added to provide the highest dose and then diluted with vehicle to provide lower doses. A 30 mg/mL stock solution of FTY720 in ethanol was prepared and stored at −20° C. Daily, the stock solution was diluted with room temperature water to a final dosing concentration of 0.6 mg/mL. Formulated Compound A, FTY720 and vehicle were each at room temperature for dosing.
Female C57BI/6 mice (9 weeks old) were acclimated for seven days prior to study initiation. On Day-1, animals were assigned to groups in a balanced manner to achieve similar average weights across the different groups. Chronic EAE was induced in female C57BI/6 mice following immunization with an emulsion of MOG35-55/CFA on Day 0, followed by an injection of pertussis toxin two hours after the initial immunization. On Day 1, a second injection of pertussis toxin was administered 24 hours after the initial immunization. Mice were injected subcutaneously at two sites on the back with the MOG35-55/CFA emulsion (Hooke Kit™ MOG35-55/CFA Emulsion PTX). The first injection site was located approximately 1 cm caudal of the neckline (upper back), and the second injection site was approximately 2 cm cranial of the base of the tail (lower back). The injection volume was 0.1 mL for each injection. The pertussis toxin was administered at the described times through intraperitoneal injection at a concentration of 85 ng/dose for both injections.
Body weight was measured three times a week (Monday, Wednesday, and Friday) starting on Day-1. Animals were scored daily for EAE starting on Day 7. In-between scores were assigned when the clinical signs fell between two below defined scores.

[1] = tested on: Col1a1, TGB-b1, MCP-1, IL-1b, IL-6, IL-17, TNF-α, Timp1; test: UUO study: tissue RNA levels of biomarkers; format: in vivo, rats
Source text: Tables 29A-29B and FIGS. 28A-28B show tissue RNA levels of various biomarkers (Col1a1, TGB-b1, MCP-1, IL-1b, IL-6, IL-17, TNF-α, and Timp1) in sham rats (black bar in FIG. 28A; square shape in FIG. 28B), UUO rats treated with vehicle (grey bar in FIG. 28A; circle shape in FIG. 28B), and UUO rats treated with Compound A (white bar in FIG. 28A; triangle shape in FIG. 28B). […] FIG. 28C further illustrates gene expression levels of Col1a1, TGB-b1, IL-1b, IL-17, MCP-1, and IL-6 relative to the vehicle control. […] To place this reduction in context, IL-6 is said to be a significant contributor to a continued inflammatory response in certain nephritis conditions.

[2] = Compound A 3 mg/kg (Group 3), Day 27
[3] = Compound A 3 mg/kg (Group 3), Day 28
[4] = Compound A 3 mg/kg (Group 3), Day −1
[5] = Compound A 10 mg/kg (Group 4), Day 0
[6] = Compound A 10 mg/kg (Group 4), Day 2
[7] = Compound A 10 mg/kg (Group 4), Day 5
[8] = Compound A 10 mg/kg (Group 4), Day 7
[9] = Compound A 10 mg/kg (Group 4), Day 9
[10] = Compound A 10 mg/kg (Group 4), Day 12
[11] = Compound A 10 mg/kg (Group 4), Day 14
[12] = Compound A 10 mg/kg (Group 4), Day 16
[13] = Compound A 10 mg/kg (Group 4), Day 19
[14] = Compound A 10 mg/kg (Group 4), Day 21
[15] = Compound A 10 mg/kg (Group 4), Day 23
[16] = Compound A 10 mg/kg (Group 4), Day 27
[17] = Compound A 10 mg/kg (Group 4), Day 28
[18] = Compound A 10 mg/kg (Group 4), Day −1
[19] = UUO rats + Compound A, N=8, relative to UUO + Vehicle = 1.00
[20] = UUO rats, tissue, Compound A 10mg/kg QD, individual animals, 10 mg/kg

In the case of `Cn1cc(-c2ccccc2)c(-c2cn(C)c(=O)c3[nH]c(-c4cnn(C(F)(F)F)c4)cc23)cc1=O` [Compound A, 6-methyl-4-(1-methyl-2-oxo-5-phenyl-1,2-dihydropyridin-4-yl)-2-(1-(trifluoromethyl)-1H-pyrazol-4-yl)-1,6-dihydro-7H-pyrrolo[2,3-c]pyridin-7-one], the “Mean Body Weight” value (EAE study: body weight; [2]) is reported as 20.4 g, the “Mean Body Weight (% of Day −1)” value (EAE study: body weight; [2]) is reported as 101.8 % of Day −1 and the “Mean Body Weight” value (EAE study: body weight; [3]) is reported as 20.6 g. The “Mean Body Weight (% of Day −1)” value (EAE study: body weight; [3]) was 103.0 % of Day −1, the “Mean Body Weight” value (EAE study: body weight; [4]) was 20.2 g and the “Mean Body Weight (% of Day −1)” value (EAE study: body weight; [4]) was 100.0 % of Day −1. For the same molecule, the “Mean Body Weight Change (% of Day −1)” value (EAE study: body weight; Compound A 3 mg/kg) was 103.0*** % of Day −1, the “Mean Body Weight” value (EAE study: body weight; [5]) was 20.5 g and the “Mean Body Weight (% of Day −1)” value (EAE study: body weight; [5]) was 101.1 % of Day −1. For the same molecule, the “Mean Body Weight” value (EAE study: body weight; [6]) was 19.8 g, the “Mean Body Weight (% of Day −1)” value (EAE study: body weight; [6]) was 97.9 % of Day −1 and the “Mean Body Weight” value (EAE study: body weight; [7]) was 20.0 g. The “Mean Body Weight (% of Day −1)” value (EAE study: body weight; [7]) was 98.9 % of Day −1, the “Mean Body Weight” value (EAE study: body weight; [8]) was 20.4 g and the “Mean Body Weight (% of Day −1)” value (EAE study: body weight; [8]) was 101.0 % of Day −1. For the same molecule, the “Mean Body Weight” value (EAE study: body weight; [9]) was 20.6 g, the “Mean Body Weight (% of Day −1)” value (EAE study: body weight; [9]) was 101.9 % of Day −1 and the “Mean Body Weight” value (EAE study: body weight; [10]) was 20.2 g. The “Mean Body Weight (% of Day −1)” value (EAE study: body weight; [10]) was 99.9 % of Day −1, the “Mean Body Weight” value (EAE study: body weight; [11]) was 19.6 g and the “Mean Body Weight (% of Day −1)” value (EAE study: body weight; [11]) was 97.2 % of Day −1. For the same molecule, the “Mean Body Weight” value (EAE study: body weight; [12]) was 19.1 g, the “Mean Body Weight (% of Day −1)” value (EAE study: body weight; [12]) was 94.7 % of Day −1 and the “Mean Body Weight” value (EAE study: body weight; [13]) was 20.0 g. For the same molecule, the “Mean Body Weight (% of Day −1)” value (EAE study: body weight; [13]) was 99.1 % of Day −1, the “Mean Body Weight” value (EAE study: body weight; [14]) was 20.7 g and the “Mean Body Weight (% of Day −1)” value (EAE study: body weight; [14]) was 102.3 % of Day −1. For the same molecule, the “Mean Body Weight” value (EAE study: body weight; [15]) was 21.1 g, the “Mean Body Weight (% of Day −1)” value (EAE study: body weight; [15]) was 104.2 % of Day −1 and the “Mean Body Weight” value (EAE study: body weight; [16]) was 21.0 g. The “Mean Body Weight (% of Day −1)” value (EAE study: body weight; [16]) was 104.0 % of Day −1, the “Mean Body Weight” value (EAE study: body weight; [17]) was 21.4 g and the “Mean Body Weight (% of Day −1)” value (EAE study: body weight; [17]) was 106.0 % of Day −1. For the same molecule, the “Mean Body Weight” value (EAE study: body weight; [18]) was 20.2 g, the “Mean Body Weight (% of Day −1)” value (EAE study: body weight; [18]) was 100.0 % of Day −1 and the “Mean Body Weight Change (% of Day −1)” value (EAE study: body weight; Compound A 10 mg/kg) was 106.0*** % of Day −1. For the same molecule, the “Col1a1 RNA level, Mean ± SEM” value [1, 19] was 0.39 ± 0.04, the “IL-1b RNA level, Mean ± SEM” value [1, 19] was 0.31 ± 0.03 and the “IL-6 RNA level, Mean ± SEM” value [1, 19] was 0.11 ± 0.02. The “IL-17 RNA level, Mean ± SEM” value [1, 19] was 0.35 ± 0.07, the “MCP-1 RNA level, Mean ± SEM” value [1, 19] was 0.33 ± 0.05 and the “TGF-b1 RNA level, Mean ± SEM” value [1, 19] was 0.52 ± 0.05. For the same molecule, the “TNF-a RNA level, Mean ± SEM” value [1, 19] was 1.00 ± 0.11, the “Timp1 RNA level, Mean ± SEM” value [1, 19] was 0.54 ± 0.09 and the “Col1a1 RNA level, Normalized Fold Change” value [1, 20] was 0.51 and 0.31 and 0.19 and 0.50 (2×) and 0.40 and 0.34 and 0.41. The “IL-1b RNA level, Normalized Fold Change” value [1, 20] was 0.37 and 0.28 and 0.24 (3×) and 0.45 and 0.23 and 0.40, the “IL-6 RNA level, Normalized Fold Change” value [1, 20] was 0.11 (2×) and 0.09 and 0.04 and 0.14 and 0.18 and 0.13 and 0.05 and the “IL-17 RNA level, Normalized Fold Change” value [1, 20] was 0.37 and 0.14 and 0.26 and 0.51 and 0.12 and 0.45 and 0.72 and 0.20. For the same molecule, the “MCP-1 RNA level, Normalized Fold Change” value [1, 20] was 0.48 and 0.24 and 0.18 and 0.34 and 0.44 and 0.25 and 0.50 and 0.20, the “TGF-b1 RNA level, Normalized Fold Change” value [1, 20] was 0.71 and 0.42 and 0.28 and 0.58 and 0.64 (2×) and 0.40 and 0.50 and the “TNF-a RNA level, Normalized Fold Change” value [1, 20] was 1.50 and 1.16 and 1.00 and 0.79 and 1.05 and 0.62 and 1.20 and 0.64. For the same molecule, the “Timp1 RNA level, Normalized Fold Change” value [1, 20] was 0.83 and 0.41 and 0.36 and 0.72 (2×) and 0.66 and 0.09 and 0.52, the “Tissue RNA level of TNF-α” value ([1]; UUO rats, 10 mg/kg) was “no observable effect” and the “Tissue RNA levels of Col1a1, TGB-b1, MCP-1, IL-1b, IL-6, IL-17, Timp1” value ([1]; UUO rats, 10 mg/kg PO QD, vs vehicle, 10 mg/kg) was “reduced levels of Colla1, TGB-b1, MCP-1, IL-1b, IL-6, IL-17, and Timp1; also recorded: markedly lower”.
